Measured values as given in patent US9233961B2, “Compounds and compositions for the treatment of parasitic diseases” (Novartis AG, priority 2013, dated 2016).
Like-named read-outs stand apart in the source and are kept apart here.

How the values were obtained:
[1] = system: Trypanosoma cruzi amastigotes (Tulahuen strain) cultured in 3T3 fibroblast cells; test: Assay for proliferation of kinetoplastid parasite Trypanosoma cruzi; format: cell-based; details: 144 h
Source text: Assay for Proliferation of Kinetoplastid Parasite Trypanosoma cruzi.
Compounds of the invention can be assayed to measure their capacity to inhibit proliferation of kinetoplastid parasite Trypanosoma cruzi. The screening procedure is for identifying compounds with inhibitor activity against Trypanosoma cruzi amastigotes cultured in 3T3 fibroblast cells. The assay is done using the mammalian stage (amastigotes) of T. cruzi that replicates in the intracellular space of host cells. The host cells are initially infected with the culture-derived trypomastigotes that rapidly invade and then divide as amastigotes. The protocol uses the Tulahuen strain of T. cruzi that has been engineered to express the E. coli beta-galactosidase gene (Lac-Z) (Antimicr. Agents Chemoth. 40:2592, 1996). This allows for a colorimetric readout by using the substrate CPRG and an absorbance plate reader.
3T3 fibroblast cells are re-suspended in RPMI-1640 medium without phenol red medium supplemented with 10% FBS (heat inactivated), 100 μg/ml penicillin, and 100 μg/ml streptomycin. Forty μL of suspension (1,000 cells) is dispensed into 384-well plates and incubated overnight at 37° C. temperature and in atmosphere containing 5% CO2. The following day, 100 nL of compounds of the invention in DMSO are added to plate wells containing 3T3 cells. At the same time control compounds (benznidazole and nifurtimox) and DMSO are added to plates to serve as the positive and negative controls, respectively. After that, 10 μL of media containing 10,000 T. cruzi trypomastigotes are added to each plate well and plates are placed back into incubators. After 6 day incubation, 10 μL of reagent solution (0.6 mM CPRG, 0.6% NP-40 in PBS) is added to plates and incubated at room temperature for 2 hours. Absorbance is then measured on SpectraMax Gemini […] to determine relative number of T. cruzi cells present in each plate well. The percentage inhibition of 50%, EC50, is calculated for each compound. […] Typically, the EC50 is 10 μM or less.

[2] = system: Trypanosoma brucei Lister 427 strain bloodstream form; test: Assay for proliferation of kinetoplastid parasite Trypanosoma brucei; format: cell-based; details: read-out: T. brucei EC50
Outline: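 Bloodstream-form T. brucei Lister 427 in HMI-9 medium was exposed to compound (DMSO vehicle) for 48 hours at 37° C, 5% CO2. Parasite growth was read as ATP by CellTiter-Glo luminescence, with EC50 calculated from percent inhibition.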

[3] = system: Leishmania donovani axenic amastigote parasites; test: Leishmania donovani axenic amastigote proliferation assay; format: cell-based; details: read-out: L. donovani amastigotes EC50
Outline: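 L. donovani axenic amastigotes (9600/well) in RPMI 1640 with 20% heat-inactivated FBS, folic acid, adenosine, glucose and 25 mM MES, pH 5.5, were incubated with compounds for 2 days at 37 °C, 5% CO2. Viability read by CellTiter-Glo luminescence; EC50 calculated.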

[4] = system: L. donovani HU3 strain in mouse peritoneal macrophages; test: Assay for proliferation of Leishmania parasites in mouse peritoneal macrophages; format: cell-based, Leishmania donovani
Outline: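 BALB/c peritoneal macrophages infected 24 h with L. donovani HU3 amastigotes taken from spleens of mice infected 9–11 weeks, then treated with compound for 5 days at 37° C, 5% CO2. Parasite nuclei counted by SYBR Green imaging after fixation; EC50 from percentage inhibition.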

[5] = Tulahuen amastigotes in 3T3 fibroblast cells, 6 day incubation, read-out: T cruzi EC50
[6] = Lister 427 bloodstream form, 48 hours
[7] = Leishmania donovani, Peritoneal macrophage, read-out: L. donavani Macrophage EC50
[8] = Leishmania donovani, Peritoneal macrophage, 120 h, L. donovani in mouse peritoneal macrophages, 5 days culture, SybrGreen parasite nuclei count, read-out: EC50
[9] = TULAHUEN, Fibroblast, read-out: T cruzi EC50

| SMILES | EC50 [1, 5] [µM] | EC50 [2, 6] [µM] | EC50 ([3]; axenic amastigotes in vitro) [µM] | EC50 [4, 7] [µM] | EC50 [4, 8] [µM] | EC50 [1, 9] [µM] | EC50 ([2]; 48 h) [µM] | EC50 [3] [µM] | EC50 ([1]; TULAHUEN, Fibroblast) [µM] | EC50 ([4]; L. donovani in mouse peritoneal macrophages, 5 days culture, SybrGreen parasite nuclei count, read-out: EC50) [µM] |
| --- | --- | --- | --- | --- | --- | --- | --- | --- | --- | --- |
| Cc1cnc2nc(-c3cc(NC(=O)c4cccnn4)ccc3Cl)[nH]c2c1 [Compound 186] | > 11.5 | 4.5 | > 25 | > 34.7 |  |  |  |  |  |  |
| Cc1cnc2nc(-c3cc(NC(=O)c4cncnc4)ccc3Cl)[nH]c2c1 [Compound 187] | > 11.5 | 4.2 | 6.9 | > 42.2 |  |  |  |  |  |  |
| Cc1cnc2nc(-c3cc(NC(=O)c4cccc(N5CCOCC5)c4)ccc3Cl)[nH]c2c1 [Compound 195] | 8.8 | 7.8 | 21.2 | > 50 |  |  |  |  |  |  |
| Cc1cnc2nc(-c3cc(NC(=O)CCC(=O)O)ccc3Cl)[nH]c2c1 [Compound 201] | > 20 | > 10.8 | > 25 | > 50 |  |  |  |  |  |  |
| Cc1cnc2nc(-c3cc(NC(=O)OC(C)C)ccc3Cl)[nH]c2c1 [Compound 216] | 0.7 | 0.46 | 2.59 | 2.83 |  |  |  |  |  |  |
| Cc1cnc2nc(-c3cc(NC(=O)OC4CCCC4)ccc3Cl)[nH]c2c1 [Compound 218] | 2.14 | 14.9 | > 25 | 7.5 |  |  |  |  |  |  |
| Cc1cnc2nc(-c3cc(NC(=O)OC4CCCCC4)ccc3Cl)[nH]c2c1 [Compound 222] | 6.4 | > 25 | > 25 | > 22.6 |  |  |  |  |  |  |
| CCN(CC)CCCCCCNC(=O)Nc1ccc(Cl)c(-c2nc3ncc(C)cc3[nH]2)c1 [Compound 227] | > 20 | > 15.2 | > 25 | > 50 |  |  |  |  |  |  |
| Cc1cnc2nc(-c3cc(NC(=O)NCCCCCCN(C)C)ccc3Cl)[nH]c2c1 [Compound 228] | > 20 | > 25 | > 25 | > 50 |  |  |  |  |  |  |
| Cc1cnc2nc(-c3cc(NC(=O)N4CC(F)(F)C[C@@H]4c4cccc(F)c4)ccc3Cl)[nH]c2c1 [Compound 229] | > 20 | > 23.3 | > 25 | > 50 |  |  |  |  |  |  |
| Cc1cnc2nc(-c3cc(NC(=O)N4CC5CC5C4)ccc3Cl)[nH]c2c1 (centres unmarked) [Compound 230] | 3.6 | 1.48 | 5.4 | 13.3 |  |  |  |  |  |  |
| Cc1cnc2nc(-c3cc(NC(=O)N(C)C4CCCC4)ccc3Cl)[nH]c2c1 [Compound 231] | > 20 | > 23.2 | > 25 | 27.9 |  |  |  |  |  |  |
| Cc1cnc2nc(-c3cc(NC(=O)N(C)C4CCOC4)ccc3Cl)[nH]c2c1 (centres unmarked) [Compound 232] | > 20 | > 25 | > 25 | > 50 |  |  |  |  |  |  |
| Cc1cnc2nc(-c3cc(NC(=O)N4CCC(N(C)C)C4)ccc3Cl)[nH]c2c1 (centres unmarked) [Compound 233] | > 20 | > 25 | > 25 | > 50 |  |  |  |  |  |  |
| Cc1cnc2nc(-c3cc(NC(=O)NCCN(C(C)C)C(C)C)ccc3Cl)[nH]c2c1 [Compound 236] | 17.9 | 1.11 | > 25 | 28.8 |  |  |  |  |  |  |
| CNC(=O)Nc1ccc(Cl)c(-c2nc3ncc(C)cc3[nH]2)c1 [Compound 238] | > 20 | 9.2 | > 25 | 29.3 |  |  |  |  |  |  |
| CON(C)C(=O)Nc1ccc(Cl)c(-c2nc3ncc(C)cc3[nH]2)c1 [Compound 240] | 0.7 | 0.45 | 2.06 | 6.1 |  |  |  |  |  |  |
| Cc1cnc2nc(-c3cc(NC(=O)N(C)c4ccccc4)ccc3Cl)[nH]c2c1 [Compound 241] | 10.4 | 9.7 | 14.2 | > 47.5 |  |  |  |  |  |  |

| SMILES | EC50 [1, 5] [µM] | EC50 [2, 6] [µM] | EC50 ([3]; axenic amastigotes in vitro) [µM] | EC50 [4, 7] [µM] | EC50 [4, 8] [µM] | EC50 [1, 9] [µM] | EC50 ([2]; 48 h) [µM] | EC50 [3] [µM] | EC50 ([1]; TULAHUEN, Fibroblast) [µM] | EC50 ([4]; L. donovani in mouse peritoneal macrophages, 5 days culture, SybrGreen parasite nuclei count, read-out: EC50) [µM] |
| --- | --- | --- | --- | --- | --- | --- | --- | --- | --- | --- |
| CCN(C)C(=O)Nc1ccc(Cl)c(-c2nc3ncc(C)cc3[nH]2)c1 [Compound 242] | 1.38 | 0.36 | 4.3 | 25.5 |  |  |  |  |  |  |
| Cc1cnc2nc(-c3cc(NC(=O)N(C)C)ccc3Cl)[nH]c2c1 [Compound 243] | 2.58 | 0.45 | 5 | 39.6 |  |  |  |  |  |  |
| Cc1cnc2nc(-c3cc(NC(=O)N4CCN(C)CC4)ccc3Cl)[nH]c2c1 [Compound 244] | > 20 | > 25 | > 25 | > 50 |  |  |  |  |  |  |
| Cc1ccc(C(=O)Nc2ccc(Cl)c(-c3nc4ncc(C(F)(F)F)cc4[nH]3)c2)o1 [Compound 279] | 0.141 | 0.311 | 0.57 | 2.25 |  |  |  |  |  |  |
| O=C(Cc1cccc(Cl)c1)Nc1ccc(Cl)c(-c2nc3ncc(C(F)(F)F)cc3[nH]2)c1 [Compound 280] | 3.4 | > 13.6 | 21.2 | 27.4 |  |  |  |  |  |  |
| CS(=O)(=O)c1ccc(-c2cnc3nc(-c4cc(NC(=O)N5CCCC5)ccc4Cl)[nH]c3c2)cc1 [Compound 297] | 5.3 | 0.187 | 1.59 | 5.5 |  |  |  |  |  |  |
| CN(C(=O)OC(C)(C)C)c1ccc(-c2cnc3nc(-c4cc(NC(=O)N5CCCC5)ccc4Cl)[nH]c3c2)cc1 [Compound 308, tert-butyl N-[4-(2-{2-chloro-5-[(pyrrolidin-1-yl)carbonylamino]phenyl}-1H-imidazo[4,5-b]pyridin-6-yl)phenyl]-N-methylcarbamate] | 0.023 | 0.025 | 0.114 | 0.085 | ~0.08 |  |  |  |  |  |
| CNc1ccc(-c2cnc3nc(-c4cc(NC(=O)c5cnccn5)ccc4Cl)[nH]c3c2)cc1 [Compound 348] | 0.064 | 0.0239 | 0.249 | 0.92 |  |  |  |  |  |  |
| CCOC(=O)Nc1ccc(Cl)c(-c2nc3ncc(-c4ccc(NC)cc4)cc3[nH]2)c1 [Compound 351] | 0.243 | 0.206 | 1.19 | 3.7 |  |  |  |  |  |  |
| COCCOC(=O)Nc1ccc(Cl)c(-c2nc3ncc(Br)cc3[nH]2)c1 [Compound 371] | 3.3 | 2.21 | 2.35 | 6.5 |  |  |  |  |  |  |
| O=C(Nc1ccc(Cl)c(-c2nc3ncc(Br)cc3[nH]2)c1)C1CCCC1 [Compound 374] | 0.85 | 5.1 | 16.5 | 5.9 |  |  |  |  |  |  |
| O=C(Nc1ccc(Cl)c(-c2nc3ncc(Br)cc3[nH]2)c1)c1cnccn1 [Compound 375] | 3.9 | 2.35 | 7.5 | > 42.7 |  |  |  |  |  |  |
| O=C1Cc2cc(-c3cnc4nc(-c5cc(NC(=O)C6CCCC6)ccc5Cl)[nH]c4c3)ccc2N1 [Compound 377] | 2.06 | 0.58 | 6.6 | 5.8 |  |  |  |  |  |  |
| COCCOC(=O)Nc1ccc(Cl)c(-c2nc3ncc(-c4ccc5c(c4)CC(=O)N5)cc3[nH]2)c1 [Compound 379] | 13.2 | 0.69 | 1.49 | 8.7 |  |  |  |  |  |  |
| Cc1cnc2nc(-c3cc(NC(=O)NCCN(C)C)ccc3Cl)[nH]c2c1 [Example 226, 1-(4-Chloro-3-{6-methyl-1H-imidazo[4,5-b]pyridin-2-yl}phenyl)-3-[2-(dimethylamino)ethyl]urea] |  |  |  | > 50 |  | > 20 | > 22.2 | > 25 |  |  |
| O=C(Nc1ccc(Cl)c(-c2nc3ncc(-c4ccccc4)cc3[nH]2)c1)N1CCCC1 [Example 291, N-(4-chloro-3-{6-phenyl-1H-imidazo[4,5-b]pyridin-2-yl}phenyl)pyrrolidine-1-carboxamide] |  | 0.0152 | 0.076 |  | 0.076 | 0.0161 |  |  | 0.016 | ~0.08 |
| CNc1ccc(-c2cnc3nc(-c4cc(NC(=O)OCCOC)ccc4Cl)[nH]c3c2)cc1 [Example 350, 2-Methoxyethyl N-(4-chloro-3-{6-[4-(methylamino)phenyl]-1H-imidazo[4,5-b]pyridin-2-yl}phenyl)carbamate] |  |  |  | 1.26 |  | 0.51 | 0.8 | 0.68 |  |  |
